# Laboratory results: patent US8354441B2, “Oxazoline derivatives” (Hoffmann-La Roche Inc., priority 2009, dated 2013)
# Key:
# [1] = molecular target: T1, mouse TAAR1 (Mus musculus, UniProt Q923Y8); experiment: TAAR1 radioligand binding with [3H]-rac-2-(1,2,3,4-tetrahydro-1-naphthyl)-2-imidazoline, membranes of stably transfected HEK293 cells; conditions: first value of the cell, read-out: Ki (μM) mouse/rat: mouse
# T1 construct: expressed in transfected cells; host or cells: HEK293 (ATCC # CRL-1573), stably transfected with pIRESneo2 expression plasmid
# T1 sequence (Q923Y8 whole entry): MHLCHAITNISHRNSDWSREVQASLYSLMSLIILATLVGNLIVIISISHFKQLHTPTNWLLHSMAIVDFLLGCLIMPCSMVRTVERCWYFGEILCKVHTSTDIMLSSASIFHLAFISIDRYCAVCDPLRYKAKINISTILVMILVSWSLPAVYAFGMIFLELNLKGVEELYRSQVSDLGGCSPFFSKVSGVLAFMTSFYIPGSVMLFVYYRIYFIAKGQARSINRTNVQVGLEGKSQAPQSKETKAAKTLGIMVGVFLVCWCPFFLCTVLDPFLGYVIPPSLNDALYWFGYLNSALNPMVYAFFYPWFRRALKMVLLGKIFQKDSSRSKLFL
# Summary of the method: (§1)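 Competition binding: competitors spanning 10 pM–30 μM displace 60 nM [3H]-rac-2-(1,2,3,4-tetrahydro-1-naphthyl)-2-imidazoline from stably transfected HEK293 membranes (mouse or rat receptor), 30 min, 4 °C, pH 7.0 buffer with Mg2+/Ca2+. Bound label counted after GF/C filtration; 10 μM unlabelled ligand defines non-specific binding.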
# [2] = molecular target: T2, rat TAAR1 (Rattus norvegicus, UniProt Q923Y9); experiment: as above; conditions: second value of the cell, read-out: Ki (μM) mouse/rat: rat
# T2 construct: expressed in transfected cells; host or cells: HEK293 (ATCC # CRL-1573), stably transfected with pIRESneo2 expression plasmid
# T2 sequence (Q923Y9 whole entry): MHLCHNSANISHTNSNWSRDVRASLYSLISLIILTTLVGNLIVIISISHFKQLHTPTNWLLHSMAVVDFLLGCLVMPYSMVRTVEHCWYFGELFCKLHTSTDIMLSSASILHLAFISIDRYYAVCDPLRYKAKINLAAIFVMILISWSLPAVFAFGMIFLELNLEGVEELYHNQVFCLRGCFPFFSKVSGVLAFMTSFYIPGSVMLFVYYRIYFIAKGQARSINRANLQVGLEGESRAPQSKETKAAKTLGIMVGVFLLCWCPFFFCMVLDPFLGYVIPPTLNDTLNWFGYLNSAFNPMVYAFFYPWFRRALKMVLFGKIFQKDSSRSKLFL
# Summary of the method: as §1
Ki [1],Ki [2],Structure (SMILES)
0.0063 µM,0.0022 µM,"COc1cnc(C(=O)Nc2ccc(CC[C@H]3COC(N)=N3)cc2)cn1 [Example 127, (S)-N-(4-(2-(2-Amino-4,5-dihydrooxazol-4-yl)ethyl)phenyl)-5-methoxypyrazine-2-carboxamide]"
0.0047 µM,0.0018 µM,"NC1=N[C@@H](CCc2ccc(NC(=O)c3cncc(Cl)n3)cc2)CO1 [Example 160, (S)-N-(4-(2-(2-Amino-4,5-dihydrooxazol-4-yl)ethyl)phenyl)-6-chloropyrazine-2-carboxamide]"
0.0007 µM,0.0017 µM,"NC1=N[C@@H](CCc2ccc(NC(=O)c3cnc(N4CCCCC4)nc3)cc2)CO1 [Example 123, (S)-N-(4-(2-(2-Amino-4,5-dihydrooxazol-4-yl)ethyl)phenyl)-2-(piperidin-1-yl)pyrimidine-5-carboxamide]"
0.0059 µM,0.0023 µM,"Cc1nc(C(=O)Nc2ccc(CC[C@H]3COC(N)=N3)cc2)c(C)o1 [Example 179, (S)-N-(4-(2-(2-Amino-4,5-dihydrooxazol-4-yl)ethyl)phenyl)-2,5-dimethyloxazole-4-carboxamide]"
0.0051 µM,0.0025 µM,"CCc1nc(C(=O)Nc2ccc(CC[C@H]3COC(N)=N3)cc2)co1 [Example 217, (S)-N-(4-(2-(2-Amino-4,5-dihydrooxazol-4-yl)ethyl)phenyl)-2-ethyloxazole-4-carboxamide]"
0.0054 µM,0.0048 µM,"NC1=N[C@@H](CCc2ccc(NC(=O)c3ccc(F)nc3F)cc2)CO1 [Example 110, N-{4-[2-((S)-2-Amino-4,5-dihydro-oxazol-4-yl)-ethyl]-phenyl}-2,6-difluoro-nicotinamide]"
0.0041 µM,0.004 µM,"COc1cc(C(=O)Nc2ccc(CC[C@H]3COC(N)=N3)cc2)nc(OC)n1 [Example 190, (S)-N-(4-(2-(2-Amino-4,5-dihydrooxazol-4-yl)ethyl)phenyl)-2,6-dimethoxypyrimidine-4-carboxamide]"
0.0057 µM,0.0051 µM,"NC1=N[C@@H](CCc2ccc(NC(=O)C3CCC(C(F)(F)F)CC3)cc2)CO1 (stereo partly drawn) [Example 79, 4-Trifluoromethyl-cyclohexanecarboxylic acid {4-[2-((S)-2-amino-4,5-dihydro-oxazol-4-yl)-ethyl]-phenyl}-amide]"
0.0002 µM,0.0003 µM,"NC1=N[C@@H](CCc2ccc(NC(=O)Nc3ccc(Cl)cc3)cc2)CO1 [Example 3, 1-{4-[2-((S)-2-Amino-4,5-dihydro-oxazol-4-yl)-ethyl]-phenyl}-3-(4-chloro-phenyl)-urea]"
0.0012 µM,0.002 µM,"CC[C@@H](C[C@H]1COC(N)=N1)c1ccc(NC(=O)Nc2ccc(F)cc2)cc1 [Example 12, 1-{4-[(S)-1-((S)-2-Amino-4,5-dihydro-oxazol-4-ylmethyl)-propyl]-phenyl}-3-(4-fluoro-phenyl)-urea]"
0.0037 µM,0.0023 µM,"NC1=N[C@@H](CCc2ccc(NC(=O)c3ccn(C(F)F)n3)cc2)CO1 [Example 195, (S)-N-(4-(2-(2-Amino-4,5-dihydrooxazol-4-yl)ethyl)phenyl)-1-(difluoromethyl)-1H-pyrazole-3-carboxamide]"
0.0032 µM,0.0046 µM,"NC1=N[C@@H](CCc2ccc(NC(=O)c3ccc(F)nc3)cc2)CO1 [Example 121, (S)-N-(4-(2-(2-Amino-4,5-dihydrooxazol-4-yl)ethyl)phenyl)-6-fluoronicotinamide]"
0.0001 µM,0.0001 µM,"NC1=N[C@@H](CCc2ccc(NC(=O)Nc3ccc(Cl)c(Cl)c3)cc2)CO1 [Example 14, 1-{4-[2-((S)-2-Amino-4,5-dihydro-oxazol-4-yl)-ethyl]-phenyl}-3-(3,4-dichloro-phenyl)-urea]"
0.002 µM,0.0008 µM,"COc1ccc(C(=O)Nc2ccc(CC[C@H]3COC(N)=N3)cc2)nc1 [Example 117, (S)-N-(4-(2-(2-Amino-4,5-dihydrooxazol-4-yl)ethyl)phenyl)-5-methoxypicolinamide]"
0.0002 µM,0.0002 µM,"NC1=N[C@@H](CCc2ccc(NC(=O)c3cccc(Cl)c3)cc2)CO1 [Example 18, N-{4-[2-((S)-2-Amino-4,5-dihydro-oxazol-4-yl)-ethyl]-phenyl}-3-chloro-benzamide]"
0.0002 µM,0.0004 µM,"NC1=N[C@@H](CCc2ccc(NC(=O)c3ccc(Cl)cc3)cc2)CO1 [Example 9, N-{4-[2-((S)-2-Amino-4,5-dihydro-oxazol-4-yl)-ethyl]-phenyl}-4-chloro-benzamide]"
0.0034 µM,0.0014 µM,"NC1=N[C@@H](CCc2ccc(NC(=O)c3ccc4cnccc4n3)cc2)CO1 [Example 104, [1,6]Naphthyridine-2-carboxylic acid {4-[2-((S)-2-amino-4,5-dihydro-oxazol-4-yl)-ethyl]-phenyl}-amide]"

Ki [1],Ki [2],Structure (SMILES)
0.0023 µM,0.0024 µM,"CCc1cncc(C(=O)Nc2ccc(CC[C@H]3COC(N)=N3)cc2)n1 [Example 211, (S)-N-(4-(2-(2-Amino-4,5-dihydrooxazol-4-yl)ethyl)phenyl)-6-ethylpyrazine-2-carboxamide]"
0.0026 µM,0.0013 µM,"COCc1ccc(C(=O)Nc2ccc(CC[C@H]3COC(N)=N3)cc2)cc1 [Example 63, N-{4-[2-((S)-2-Amino-4,5-dihydro-oxazol-4-yl)-ethyl]-phenyl}-4-methoxymethyl-benzamide]"
0.0008 µM,0.0014 µM,"CCc1nc(OC)cc(C(=O)Nc2ccc(CC[C@H]3COC(N)=N3)cc2)n1 [Example 203, 2-Ethyl-6-methoxy-pyrimidine-4-carboxylic acid {4-[2-((S)-2-amino-4,5-dihydro-oxazol-4-yl)-ethyl]-phenyl}-amide]"
0.0014 µM,0.0007 µM,"CC(C(=O)Nc1ccc(CC[C@H]2COC(N)=N2)cc1)c1ccc(Cl)cc1 (stereo partly drawn) [Example 58, N-{4-[2-((S)-2-Amino-4,5-dihydro-oxazol-4-yl)-ethyl]-phenyl}-2-(4-chloro-phenyl)-propionamide]"
0.0024 µM,0.0036 µM,"NC1=N[C@@H](CCc2ccc(NC(=O)C3CCCCC3)cc2)CO1 [Example 49, Cyclohexanecarboxylic acid {4-[2-((S)-2-amino-4,5-dihydro-oxazol-4-yl)-ethyl]-phenyl}-amide]"
0.0074 µM,0.0052 µM,"COc1ncc(C(=O)Nc2ccc(CC[C@H]3COC(N)=N3)cc2)cn1 [Example 83, 2-Methoxy-pyrimidine-5-carboxylic acid {4-[2-((S)-2-amino-4,5-dihydro-oxazol-4-yl)-ethyl]-phenyl}-amide]"
0.0009 µM,0.0013 µM,"COc1cc(C(=O)Nc2ccc(CC[C@H]3COC(N)=N3)cc2)nc(Cl)n1 [Example 231, 2-Chloro-6-methoxy-pyrimidine-4-carboxylic acid {4-[2-((S)-2-amino-4,5-dihydro-oxazol-4-yl)-ethyl]-phenyl}-amide]"
0.001 µM,0.0024 µM,"NC1=N[C@@H](CCc2ccc(NC(=O)c3cnc(C(F)(F)F)cn3)cc2)CO1 [Example 159, (S)-N-(4-(2-(2-Amino-4,5-dihydrooxazol-4-yl)ethyl)phenyl)-5-(trifluoromethyl)pyrazine-2-carboxamide]"
0.0005 µM,0.0017 µM,"CC(C(=O)Nc1ccc(CC[C@H]2COC(N)=N2)cc1)c1cccc(OC(F)(F)F)c1 (stereo partly drawn) [Example 82, N-{4-[2-((S)-2-Amino-4,5-dihydro-oxazol-4-yl)-ethyl]-phenyl}-2-(3-trifluoromethoxy-phenyl)-propionamide]"
0.0097 µM,0.0014 µM,"NC1=N[C@@H](CCc2ccc(NC(=O)c3cccc(F)n3)cc2)CO1 [Example 88, 6-Fluoro-pyridine-2-carboxylic acid {4-[2-((S)-2-amino-4,5-dihydro-oxazol-4-yl)-ethyl]-phenyl}-amide]"
0.0006 µM,0.001 µM,"NC1=N[C@@H](CCc2ccc(NC(=O)c3ccc(OCC(F)(F)F)nc3)cc2)CO1 [Example 113, N-{4-[2-((S)-2-Amino-4,5-dihydro-oxazol-4-yl)-ethyl]-phenyl}-6-(2,2,2-trifluoro-ethoxy)-nicotinamide]"
0.0044 µM,0.0011 µM,"N#Cc1ccc(NC(=O)c2ccc(CC[C@H]3COC(N)=N3)cc2)cc1 [Example 142, (S)-4-(2-(2-Amino-4,5-dihydrooxazol-4-yl)ethyl)-N-(4-cyanophenyl)benzamide]"
0.0068 µM,0.0019 µM,"Cc1ccc(C(=O)Nc2ccc(CC[C@H]3COC(N)=N3)cc2)cn1 [Example 98, N-{4-[2-((S)-2-Amino-4,5-dihydro-oxazol-4-yl)-ethyl]-phenyl}-6-methyl-nicotinamide]"
0.0002 µM,0.0004 µM,"NC1=N[C@@H](CCc2ccc(NC(=O)c3ccc(Br)cn3)cc2)CO1 [Example 92, 5-Bromo-pyridine-2-carboxylic acid {4-[2-((S)-2-amino-4,5-dihydro-oxazol-4-yl)-ethyl]-phenyl}-amide]"
0.0007 µM,0.002 µM,"NC1=N[C@@H](CCc2ccc(NC(=O)c3cnc(Cl)cn3)cc2)CO1 [Example 126, (S)-N-(4-(2-(2-Amino-4,5-dihydrooxazol-4-yl)ethyl)phenyl)-5-chloropyrazine-2-carboxamide]"
0.001 µM,0.0003 µM,"NC1=N[C@@H](CCc2ccc(C(=O)Nc3ccc(Cl)cc3)cc2)CO1 [Example 48, 4-[2-((S)-2-Amino-4,5-dihydro-oxazol-4-yl)-ethyl]-N-(4-chloro-phenyl)-benzamide]"

Structure (SMILES),Ki [1],Ki [2]
"NC1=N[C@@H](CCc2ccc(NC(=O)Oc3cccc(C(F)(F)F)c3)cc2)CO1 [Example 149, {4-[2-((S)-2-Amino-4,5-dihydro-oxazol-4-yl)-ethyl]-phenyl}-carbamic acid 3-trifluoromethyl-phenyl ester]",0.0097 µM,0.0092 µM
